{"source": "patent EP1388586A2", "about": "“Identification of broadly reactive DR restricted epitopes” (priority 1998, dated 1999)", "key": {"[1]": {"molecular_target": "T1, DRB1*0101 (DR1) (Homo sapiens, UniProt P01903+P01911, A100R/D57E/F55L/F60I/F76Y/I96L/L162R/M171V/P40L/Q125E/R42F/V115G/Y59C)", "T1 construct": "used as sources of human HLA class II molecules; endogenous in cells; host or cells: LG2 (EBV-transformed homozygous B cell line)", "assay": "Class II peptide-binding assay, DR1;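 note: competition assay: unlabeled test peptides inhibit binding of a radiolabeled probe peptide to purified DR, with half-maximal inhibition taken as an approximate dissociation constant Kd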"}, "[2]": {"molecular_target": "T2, DRB1*1101 (DR5w11) (Homo sapiens, UniProt P01903+P01911, A100R/A169T/A87E/I96F/K41T/L162R/M171V/P40S/Q125H/Q178H/Q39Y/Q99D/R42S/S66Y/T262R/V115G/W38E)", "T2 construct": "used as sources of human HLA class II molecules; endogenous in cells; host or cells: SWEIG (EBV-transformed homozygous B cell line)", "T2 sequence (P01903 26-254, other chains not shown)": "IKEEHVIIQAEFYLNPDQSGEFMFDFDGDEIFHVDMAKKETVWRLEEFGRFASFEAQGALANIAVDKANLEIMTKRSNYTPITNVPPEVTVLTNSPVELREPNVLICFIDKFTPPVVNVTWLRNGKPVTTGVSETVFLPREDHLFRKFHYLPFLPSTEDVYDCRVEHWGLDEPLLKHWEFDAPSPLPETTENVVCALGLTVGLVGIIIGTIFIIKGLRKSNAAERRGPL", "assay": "Class II peptide-binding assay, DR5w11;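 note: competition by unlabeled test peptide against iodinated probe peptide binding to affinity-purified HLA-DR, class II amount titrated beforehand, half-maximal inhibitory concentration read as approximate Kd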", "details": "read-out: DR5w11 nM (In IC50 Format); purified HLA DR5w11"}, "[3]": {"molecular_target": "DRB1*0701 (DR7) (Homo sapiens, UniProt P01903+P01911, A100R/A102G/A103Q/D57E/D86V/E43K/F76Y/K127E/L162R/M171V/P40G/Q125H/Q99D/R33Q/R42Y/R54Q/S133A/S66F/T210M/V115G/Y107V/Y59L/Y89S)", "assay": "Class II peptide-binding assay, DR7;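 note: unlabeled peptides compete with an iodinated probe peptide for binding to affinity-purified HLA-DR at neutral pH, DR amount titered to bind a small tracer fraction, IC50 approximating Kd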", "method": "(§1) Class II peptide-binding assays. […] These assays were chosen as to be representative of the most common DR alleles.\nRadiolabeled peptides were iodinated using the chloramine-T method. […] In appropriate stoichiometric conditions, the IC50 of an unlabeled test peptide to the purified DR is a reasonable approximation of the affinity of interaction (Kd). Peptides were tested in two to four completely independent experiments. […] Final detergent concentration in the incubation mixture was 0.05% Nonidet P-40. Assays were performed at pH 7.0 with the exception of DR3, which was performed at pH 4.5, and DRw53, which was performed at pH 5.0.\n(§2) All subsequent inhibition and direct binding assays were the performed using these class II concentrations."}, "[4]": {"molecular_target": "T3, DRB1*0301 (DR3w17) (Homo sapiens, UniProt P01903+P01911, A100K/A102G/A103R/A169T/F55Y/I96L/K41T/L162R/M171V/P40S/Q125H/Q178H/Q39Y/R42S/S66N/T106N/T262R/W38E/Y61H)", "T3 construct": "used as sources of human HLA class II molecules; endogenous in cells; host or cells: MAT (EBV-transformed homozygous B cell line)", "T3 sequence (P01903 26-254, other chains not shown)": "as above", "assay": "Class II peptide-binding assay, DR3 (pH 4.5);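 note: unlabeled peptide competing with a radiolabeled probe peptide for binding to affinity-purified HLA-DR3, IC50 regarded as an approximation of Kd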", "method": "as §1\n(§3) In appropriate stoichiometric conditions, the IC50 of an unlabeled test peptide to the purified DR is a reasonable approximation of the affinity of interaction (Kd). Peptides were tested in two to four completely independent experiments. […] Final detergent concentration in the incubation mixture was 0.05% Nonidet P-40. Assays were performed at pH 7.0 with the exception of DR3, which was performed at pH 4.5, and DRw53, which was performed at pH 5.0.\nas §2"}, "[5]": {"molecular_target": "T4, DRB1*0401 (DR4w4) (Homo sapiens, UniProt P01903+P01911, A100K/A169T/F76Y/I96L/K127E/L162R/M171V/N62H/P40V/Q125Y/R42H/S133A/S149N/S66Y/V115G/V209L/W38E)", "T4 construct": "used as sources of human HLA class II molecules; endogenous in cells; host or cells: PREISS (EBV-transformed homozygous B cell line)", "assay": "Class II peptide-binding assay, DR4w4;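 note: unlabeled test peptides compete with a radiolabeled probe peptide for binding to affinity-purified HLA-DR, with DR amount titrated to capture a small fraction of label, IC50 approximating Kd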"}, "[6]": {"molecular_target": "T5, DRB10404 (DR4w14) (Homo sapiens, UniProt P01903+P01911, A100R/A169T/F76Y/I96L/K127E/L162R/M171V/N62H/P40V/Q125Y/R42H/S133A/S149N/S66Y/V209L/W38E)", "T5 construct": "used as sources of human HLA class II molecules; endogenous in cells; host or cells: BIN40 (EBV-transformed homozygous B cell line)", "assay": "Class II peptide-binding assay, DR4w14;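 note: unlabeled peptides compete with a radiolabeled probe for binding to affinity-purified HLA-DR, neutral pH, class II amount titrated to bind a small fraction of label, IC50 approximates Kd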", "details": "read-out: DR4w14 nM (In IC50 Format); purified HLA DR4w14", "method": "as §1, §3, §2"}, "[7]": {"molecular_target": "T6, DRB5*0101 (DR2w2a) (Homo sapiens, UniProt P01903+Q30154)", "T6 construct": "used as sources of human HLA class II molecules; endogenous in cells; host or cells: GM3107 (EBV-transformed homozygous B cell line)", "assay": "Class II peptide-binding assay, DR2w2a (DR2w2B2);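 note: competitive binding assay: unlabeled peptide inhibiting binding of a radiolabeled probe peptide to purified DR molecules at pH 7.0, IC50 approximating Kd, lower means stronger binding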", "details": "purified HLA DR2w2β2; read-out: DR2w2B2 nM (In IC50 Format)"}, "[8]": {"details": "read-out: DR1 nM (In IC50 Format); purified HLA DR1"}, "[9]": {"details": "read-out: DR7 nM (In IC50 Format); purified HLA DR7"}, "[10]": {"details": "read-out: DR3 nM (In IC50 Format), purified HLA DR3"}, "[11]": {"details": "read-out: DR4w4 nM (In IC50 Format); purified HLA DR4w4"}, "[12]": {"details": "read-out: In IC50 Format DR3 nM, Table VIII, values in parentheses read as lower bounds"}}, "note": "Where two headings read alike, the source gives them in different places. Ends that are not written are not given here. Peptide text beside a SMILES is read from it."}
{"compound": "CSCC[C@H](N)C(=O)NCC(=O)N[C@@H](CCC(N)=O)C(=O)N[C@@H](CC(N)=O)C(=O)N[C@@H](CC(C)C)C(=O)N[C@@H](CO)C(=O)N[C@H](C(=O)N[C@@H](CO)C(=O)N[C@@H](CC(N)=O)C(=O)N1CCC[C@H]1C(=O)N[C@@H](CC(C)C)C(=O)NCC(=O)N[C@@H](Cc1ccccc1)C(=O)N[C@@H](Cc1ccccc1)C(=O)N1CCC[C@H]1C(=O)N[C@@H](CC(=O)O)C(=O)N[C@@H](Cc1c[nH]cn1)C(=O)O)[C@@H](C)O", "note": "[Peptide 800.01]", "values": [{"measurement": "IC50", "setting": "[1]; [8]", "value": 0.0943, "unit": "µM"}, {"measurement": "IC50", "setting": "[2]", "value": 2, "unit": "µM"}, {"measurement": "IC50", "setting": "[3]; [9]", "value": 0.154, "unit": "µM"}, {"measurement": "IC50", "setting": "[4]; [10]", "value": 6.82, "unit": "µM"}, {"measurement": "IC50", "setting": "[5]; [11]", "value": 0.0688, "unit": "µM"}, {"measurement": "IC50", "setting": "[6]", "value": 2, "unit": "µM"}]}
{"compound": "CC[C@H](C)[C@H](NC(=O)[C@H](CO)NC(=O)[C@H](CCC(=O)O)NC(=O)[C@H](CC(C)C)NC(=O)[C@H](C)NC(=O)[C@@H](N)CC(=O)O)C(=O)N[C@@H](CCSC)C(=O)N[C@H](C(=O)N[C@H](C(=O)N[C@@H](CCCCN)C(=O)N[C@@H](CO)C(=O)N[C@H](C(=O)N[C@@H](CO)C(=O)N[C@@H](Cc1ccccc1)C(=O)N[C@@H](CCCNC(=N)N)C(=O)O)C(C)C)[C@@H](C)O)[C@@H](C)O", "note": "[Peptide 774.00]", "values": [{"measurement": "IC50", "setting": "[1]; purified HLA DR1; read-out: DR1 nM (In IC50 Format)", "value": 0.385, "unit": "µM"}, {"measurement": "IC50", "setting": "[7]", "value": 20, "unit": "µM"}, {"measurement": "IC50", "setting": "[3]; purified HLA DR7; read-out: DR7 nM (In IC50 Format)", "value": 0.0841, "unit": "µM"}, {"measurement": "IC50", "setting": "[4]; purified HLA DR3, read-out: DR3 nM (In IC50 Format)", "value": 33.3, "unit": "µM"}, {"measurement": "IC50", "setting": "[5]; purified HLA DR4w4; read-out: DR4w4 nM (In IC50 Format)", "value": 0.11, "unit": "µM"}]}
{"compound": "CSCC[C@H](NC(=O)[C@H](CC(C)C)NC(=O)[C@H](CCC(=O)O)NC(=O)CNC(=O)[C@H](Cc1c[nH]c2ccccc12)NC(=O)[C@@H](N)CS)C(=O)N[C@H](C(=O)N[C@@H](CC(C)C)C(=O)N[C@@H](C)C(=O)N[C@H](C(=O)N[C@@H](Cc1c[nH]c2ccccc12)C(=O)N[C@H](C(=O)NCC(=O)N[C@H](C(=O)N[C@@H](CC(N)=O)C(=O)N[C@@H](CC(C)C)C(=O)N[C@@H](CCC(=O)O)C(=O)N[C@@H](CC(=O)O)C(=O)O)C(C)C)C(C)C)[C@@H](C)O)[C@@H](C)O", "note": "[Peptide 802.02]", "values": [{"measurement": "IC50", "setting": "[1]; [8]", "value": 0.357, "unit": "µM"}, {"measurement": "IC50", "setting": "[2]", "value": 5, "unit": "µM"}, {"measurement": "IC50", "setting": "[3]; [9]", "value": 6.25, "unit": "µM"}, {"measurement": "IC50", "setting": "[4]; [10]", "value": 100, "unit": "µM"}, {"measurement": "IC50", "setting": "[5]; [11]", "value": 0.738, "unit": "µM"}, {"measurement": "IC50", "setting": "[6]", "value": 0.0907, "unit": "µM"}]}
{"compound": "CC(C)C[C@H](NC(=O)[C@@H]1CCCN1C(=O)CNC(=O)[C@@H](N)CCCCN)C(=O)N1CCC[C@H]1C(=O)N[C@H](C(=O)N[C@@H](CC(=O)O)C(=O)N[C@@H](CS)C(=O)N[C@@H](CS)C(=O)N[C@@H](Cc1c[nH]cn1)C(=O)N[C@@H](CCC(=O)O)C(=O)N[C@@H](CCC(N)=O)C(=O)N[C@@H](CS)C(=O)N[C@@H](C)C(=O)N[C@@H](C)C(=O)O)[C@@H](C)O", "note": "[Peptide 39.0344]", "values": [{"measurement": "IC50", "setting": "[4]; [12]", "value": "> 111", "unit": "µM"}]}
{"compound": "CC(C)C[C@H](NC(=O)[C@H](CC(N)=O)NC(=O)CNC(=O)[C@@H](N)CCC(=O)O)C(=O)N[C@@H](CCCNC(=N)N)C(=O)N[C@H](C(=O)N[C@@H](CCC(=O)O)C(=O)N[C@@H](Cc1ccc(O)cc1)C(=O)N[C@@H](CC(C)C)C(=O)N[C@@H](CC(=O)O)C(=O)N[C@@H](CC(=O)O)C(=O)N[C@@H](CCCNC(=N)N)C(=O)N[C@@H](CC(N)=O)C(=O)N[C@H](C(=O)N[C@@H](Cc1ccccc1)C(=O)O)[C@@H](C)O)C(C)C", "note": "[Peptide 39.0417]", "values": [{"measurement": "IC50", "setting": "[4]; read-out: In IC50 Format DR3, Table VIII", "value": 76.9, "unit": "µM"}]}
{"compound": "DNLYYWDQDPPERGA [Peptide 39.0383]", "values": [{"measurement": "IC50", "setting": "[4]; [12]", "value": "> 120", "unit": "µM"}]}
{"compound": "CC(C)C[C@H](NC(=O)[C@H](Cc1ccc(O)cc1)NC(=O)[C@H](CC(N)=O)NC(=O)[C@@H](N)Cc1ccc(O)cc1)C(=O)N[C@@H](CO)C(=O)N[C@H](C(=O)N[C@@H](CC(=O)O)C(=O)N[C@H](C(=O)NCC(=O)N[C@@H](CO)C(=O)N[C@@H](CS)C(=O)N[C@H](C(=O)N[C@@H](CC(C)C)C(=O)N[C@H](C(=O)N[C@@H](CS)C(=O)O)C(C)C)[C@@H](C)O)C(C)C)[C@@H](C)O", "note": "[Peptide 39.0346] (H-YNYLSTDVGSCTLVC-OH)", "values": [{"measurement": "IC50", "setting": "[4]; [12]", "value": 50.8, "unit": "µM"}]}
{"compound": "CC(C)C[C@H](NC(=O)[C@@H](NC(=O)[C@H](CCC(=O)O)NC(=O)[C@H](Cc1ccccc1)NC(=O)[C@@H](NC(=O)[C@H](CCC(N)=O)NC(=O)[C@H](CC(C)C)NC(=O)[C@H](CCC(N)=O)NC(=O)[C@H](CCC(=O)O)NC(=O)[C@@H]1CCCN1C(=O)[C@H](CCC(N)=O)NC(=O)[C@H](CC(C)C)NC(=O)[C@@H]1CCCN1C(=O)[C@H](C)NC(=O)[C@@H](N)[C@@H](C)O)C(C)C)[C@@H](C)O)C(=O)O", "note": "[Peptide 39.0351]", "values": [{"measurement": "IC50", "setting": "[4]; [12]", "value": 130, "unit": "µM"}]}
